This experiment can be described thus: Apparent inhibition constant of the FKBP […] isomerase (PPIase) activity.

As to `CC1(C)COC(=O)CCCCCCCCCOC(=O)[C@@H]2CCCCN2C(=O)C1=O`, the Ki turned out to be 30 µM. As for `CC1(C)COC(=O)CCCCCCCCCCCCCCCOC(=O)C2CCCCN2C(=O)C1=O` (stereo not given) [7,7-Dimethyl-icosahydro-9,26-dioxa-4a-aza-benzocyclopentacosene-5,6,10,27-tetraone], the figure is 11000 µM; as for `CC1(C)COC(=O)CCCOC(=O)C2CCCCN2C(=O)C1=O` (stereo not given) [7,7-Dimethyl-octahydro-9,14-dioxa-4a-aza-benzocyclotridecene-5,6,10,15-tetraone], 2900 µM; as for `CC1(C)COC(=O)CCCCCCCCCOC(=O)C2CCCCN2C(=O)C1=O` (stereo not given) [7,7-Dimethyl-tetradecahydro-9,20-dioxa-4a-aza-benzocyclononadecene-5,6,10,21-tetraone], 90 µM. Take `CC1(C)COC(=O)CCCCCCCCCCC(CCC2CCCCC2)OC(=O)C2CCCCN2C(=O)C1=O` (stereo not given) [21-(2-Cyclohexyl-ethyl)-7,7-dimethyl-hexadecahydro-9,22-dioxa-4a-aza-benzocyclohenicosene-5,6,10,23-tetraone]: the Ki amounted to 190 µM.

Values taken from BindingDB's records for doi:10.1016/S0960-894X(01)80136-0 (1994).
